In this experiment the test system is RRE. Put plainly: Displacement assay using Rev peptide after formation of complex with RRE. As to conditions: compound and RRE each 2 μM, Rev protein 0-4.0 μM. In kind it is binding, HIV-1. On the procedure: In this Example, a binding affinity between a test substance and RRE was evaluated, with use of the compounds, X2S, X2S(3), X2S(4), X2S(5), X2S(2-Me), and 3,6-X2S(2). As the test substance, Rev protein used in Example 5 was used.
Firstly, in the same manner as in Example 3, the above compounds and RREs were respectively dissolved in cacodylate buffer solutions (sodium cacodylate: 10 mM pH 7.0, NaCl: 100 mM) each at 2 μM, so that an X2S-RRE solution, an X2S(3)-RRE solution, an X2S(4)-RRE solution, an X2S(5)-RRE solution, an X2S(2-Me)-RRE solution, and a 3,6-X2S(2)-RRE solution were prepared.
To each of these solutions, Rev protein was added in stages at 0 μM, 0.4 μM, 0.8 μM, 1.2 μM, 1.6 μM, 2.0 μM, 2.4 μM, 2.8 μM, 3.2 μM, 3.6 μM, and 4.0 μM. Further, a fluorescence intensity was measured at each concentration. The fluorescence intensity was measured in the same manner as that described in Example 14.
Each of FIGS. 43 to 48 is a view illustrating a result of the measurement of a binding affinity between Rev protein and RRE. […] In each of FIGS. 43 to 48, the horizontal axis represents the fluorescence wavelength, whereas the vertical axis represents the fluorescence intensity. […] Further, along the direction of the arrow extending from the curved line at the bottom, the curved lines, showing the respective results, are arranged in order of increasing amount of the test substance which was added.
FIG. 49 is a view illustrating a relationship between an amount of Rev added and a fluorescence intensity, in connection with X2S, X2S(3), X2S(4), X2S(5), X2S(2-Me), and 3,6-X2S(2). Further, FIG. 49 is also a view plotting, based on the results illustrated in FIGS. 43 to 48, the fluorescence intensities detected at the fluorescence wavelength at which the respective fluorescence peaks were observed. FIG. 50 is a graph illustrating a relationship between an amount of Rev added and a recovery rate of the fluorescence intensity. In FIG. 49, the vertical axis represents the fluorescence intensity. In FIG. 50, the vertical axis represents the recovery rate of the fluorescence intensity. In each of FIGS. 49 and 50, the horizontal axis represents the amount of Rev added. That is, each of FIGS. 49 and 50 reflects amounts of the above compounds liberated from RREs due to the addition of Rev.
The recovery rate of the fluorescence intensity was obtained by dividing (i) a maximum value of the fluorescence intensity detected at each Rev concentration ranging from 0 μM to 4.0 μM in each of FIGS. 43 to 48 by (ii) a maximum value of the fluorescence intensity of the curved line at the top in each of FIGS. 43 to 48.
In this Example, 1-Pyrenemethanamide, hydrochloride was used to measure a binding affinity between a test substance and RRE. As the test substance, Rev protein used in Example 5 was used.
Firstly, in the same manner as in Example 3, 1-Pyrenemethanamide, hydrochloride and RRE were dissolved in a cacodylate buffer solution (sodium cacodylate: 10 mM, pH 7.0; NaCl: 100 mM) each at 2 μM, so that a 1-Pyrenemethanamide, hydrochloride-RRE solution was prepared.
To the solution, Rev protein was added in steps at 0 μM, 0.4 μM, 0.8 μM, 1.2 μM, 1.6 μM, 2.0 μM, 2.4 μM, 2.8 μM, 3.2 μM, 3.6 μM, and 4.0 μM. Further, the solution at each concentration was irradiated with light having an excitation wavelength of 340 nm, and a fluorescence intensity was measured. A device used for measuring a fluorescence intensity and a variation in a slit width were the same as those in Example 13.
FIG. 55 is a view illustrating a result of the measurement of a binding affinity between Rev protein and RRE. The horizontal axis represents the fluorescence wavelength, whereas the vertical axis represents the fluorescence intensity. […] Further, along a bottom-to-top direction, the curved lines, showing the respective results, are arranged in order of increasing amount of the test substance which was added. […]

`NCCOc1ccc2oc3ccc(OCCN)cc3c(=O)c2c1` [X2S, 2,7-bis(2-aminoethoxy)xanthen-9-one]: the “fluorescence intensity in displacement assay” value is reported as “high” and the “recovery rate of the fluorescence intensity” value was “good”.

For the origin of these results see patent US8741659B2, “Composition for measuring the binding affinity between nucleic acid and test substance, and use thereof” (Osaka University, priority 2007, dated 2014).
